In patent publication US11046680B1, “Heteroaryl-substituted triazoles as APJ receptor agonists” (priority 2016, dated 2021):

Each compound was assayed against human APJ receptor (Homo sapiens (Human), UniProt P35414) (assay: biochemical). Conditions: [35S]GTPγS binding, CHO membranes expressing human APJ receptor; read-out: Activity hAPJ SPA EC50 IP.
Assay type: biochemical
In short: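 GTPγS binding on membranes from CHO cells stably expressing FLAG-tagged human APJ, with optimized GDP, MgCl2 and NaCl; incubated 90 min at RT before imaging read-out.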

human APJ receptor, sequence (P35414 whole entry): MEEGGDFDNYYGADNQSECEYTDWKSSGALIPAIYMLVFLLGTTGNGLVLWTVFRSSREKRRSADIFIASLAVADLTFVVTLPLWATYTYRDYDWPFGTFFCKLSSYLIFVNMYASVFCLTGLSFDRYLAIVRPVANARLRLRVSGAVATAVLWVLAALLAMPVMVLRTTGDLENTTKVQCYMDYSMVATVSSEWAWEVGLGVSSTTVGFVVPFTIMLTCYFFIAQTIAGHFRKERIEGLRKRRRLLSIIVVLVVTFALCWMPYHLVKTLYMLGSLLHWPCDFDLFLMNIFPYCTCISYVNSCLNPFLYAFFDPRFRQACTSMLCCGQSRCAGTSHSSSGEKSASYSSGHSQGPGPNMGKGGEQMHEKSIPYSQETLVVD

**Q.** Which EC50 does the source give for COc1cccc(OC)c1-n1c(NS(=O)(=O)[C@@H](C)[C@H](OC)c2ncc(Cl)cn2)nnc1-c1cc(C)[nH]n1 [Example 344.0, (1R,2S)-1-(5-chloro-2-pyrimidinyl)-N-(4-(2,6-dimethoxyphenyl)-5-(5-methyl-1H-pyrazol-3-yl)-4H-1,2,4-triazol-3-yl)-1-methoxy-2-propanesulfonamide] here?
**A.** 0.63 nM

**Q.** How did the EC50 turn out when COc1cccc(OC)c1-n1c(NS(=O)(=O)[C@@H](C)[C@H](OC)c2ncc(F)cn2)nnc1-c1cc(C)[nH]n1 [Example 345.0, (1R,2S)-N-(4-(2,6-dimethoxyphenyl)-5-(5-methyl-1H-pyrazol-3-yl)-4H-1,2,4-triazol-3-yl)-1-(5-fluoro-2-pyrimidinyl)-1-methoxy-2-propanesulfonamide] was run?
**A.** 8.1 nM

**Q.** Which EC50 does the source give for COc1cccc(OC)c1-n1c(NS(=O)(=O)[C@@H](C)[C@H](C)c2ncc(C)cn2)nnc1-c1cc(C)[nH]n1 [Example 346.0, (2S,3R)-N-(4-(2,6-dimethoxyphenyl)-5-(5-methyl-1H-pyrazol-3-yl)-4H-1,2,4-triazol-3-yl)-3-(5-methyl-2-pyrimidinyl)-2-butanesulfonamide] here?
**A.** 1.5 nM

**Q.** How did the EC50 turn out when COc1cccc(OC)c1-n1c(NS(=O)(=O)[C@@H](C)[C@H](O)c2cnc(C)cn2)nnc1-c1cc(C)[nH]n1 [Example 347.0, (1R,2S)-N-(4-(2,6-Dimethoxyphenyl)-5-(5-methyl-1H-pyrazol-3-yl)-4H-1,2,4-triazol-3-yl)-1-hydroxy-1-(5-methyl-2-pyrazinyl)-2-propanesulfonamide] was run?
**A.** 3.8 nM

**Q.** COc1cccc(OC)c1-n1c(NS(=O)(=O)[C@@H](C)[C@H](OC)c2cnc(C)cn2)nnc1-c1cc(C)[nH]n1 [Example 348.0, (1R,2S)-N-(4-(2,6-dimethoxyphenyl)-5-(5-methyl-1H-pyrazol-3-yl)-4H-1,2,4-triazol-3-yl)-1-methoxy-1-(5-methyl-2-pyrazinyl)-2-propanesulfonamide] was tested. Which EC50 did it give?
**A.** 4.3 nM

**Q.** With COc1cccc(OC)c1-n1c(NS(=O)(=O)[C@@H](C)[C@H](O)c2ncc(C)cn2)nnc1-c1cc(C)n[nH]1 [Example 349.0, (1R,2S)-N-(4-(2,6-Dimethoxyphenyl)-5-(3-methyl-1H-pyrazol-5-yl)-4H-1,2,4-triazol-3-yl)-1-hydroxy-1-(5-methylpyrimidin-2-yl)propane-2-sulfonamide] as the compound, how does the EC50 read?
**A.** 2.1 nM

**Q.** COc1cccc(OC)c1-n1c(NS(=O)(=O)[C@@H](C)[C@@H](OC(C)C)c2ncc(C)cn2)nnc1-c1ccn(C)n1 [Example 355.0, (1S,2S)-N-(4-(2,6-dimethoxyphenyl)-5-(1-methyl-1H-pyrazol-3-yl)-4H-1,2,4-triazol-3-yl)-1-isopropoxy-1-(5-methylpyrimidin-2-yl)propane-2-sulfonamide] was tested. Which EC50 did it give?
**A.** 0.47 nM

**Q.** With O=S(=O)(Cc1ccc(Cl)cc1)Nc1nnc(-c2cccs2)n1-c1ccccc1C(F)(F)F [Example 356.0, 1-(4-Chlorophenyl)-N-(5-(thiophen-2-yl)-4-(2-(trifluoromethyl)phenyl)-4H-1,2,4-triazol-3-yl)methanesulfonamide] as the compound, how does the EC50 read?
**A.** > 12500 nM

**Q.** Which EC50 does the source give for O=S(=O)(CCc1ccc(Cl)cc1)Nc1nnc(-c2cccs2)n1-c1ccccc1C(F)(F)F [Example 357.0, 2-(4-Chlorophenyl)-N-(5-(thiophen-2-yl)-4-(2-(trifluoromethyl)phenyl)-4H-1,2,4-triazol-3-yl)ethanesulfonamide] here?
**A.** > 12500 nM

**Q.** How did the EC50 turn out when COc1ccc(S(C)(=O)=O)cc1-n1c(NS(=O)(=O)CCc2ccc(F)cc2)nnc1-c1cccs1 [Example 358.0, 2-(4-Fluorophenyl)-N-(4-(2-methoxy-5-(methylsulfonyl)phenyl)-5-(thiophen-2-yl)-4H-1,2,4-triazol-3-yl)ethanesulfonamide] was run?
**A.** 34 nM

**Q.** With COc1ccccc1-n1c(NS(=O)(=O)CCc2ccc(F)cc2)nnc1-c1cccs1 [Example 359.0, 2-(4-Fluorophenyl)-N-(4-(2-methoxyphenyl)-5-(thiophen-2-yl)-4H-1,2,4-triazol-3-yl)ethanesulfonamide] as the compound, how does the EC50 read?
**A.** 143 nM

**Q.** COc1ccc(Cl)cc1-n1c(NS(=O)(=O)CCc2ccc(F)cc2)nnc1-c1cccs1 [Example 360.0, N-(4-(5-Chloro-2-methoxyphenyl)-5-(thiophen-2-yl)-4H-1,2,4-triazol-3-yl)-2-(4-fluorophenyl)ethanesulfonamide] was tested. Which EC50 did it give?
**A.** 194 nM

**Q.** Which EC50 does the source give for COc1cccc(OC)c1-n1c(NS(=O)(=O)CCC(=O)N2CCCC2)nnc1-c1cccs1 [Example 361.0, N-(4-(2,6-Dimethoxyphenyl)-5-(thiophen-2-yl)-4H-1,2,4-triazol-3-yl)-3-oxo-3-(pyrrolidin-1-yl)propane-1-sulfonamide] here?
**A.** 34 nM

**Q.** For CCS(=O)(=O)Nc1nnc(-c2cc([C@@H](O)c3ccc(Cl)cc3S(C)(=O)=O)n(C)n2)n1-c1c(OC)cccc1OC [Example 382.0, N-(5-(5-((R)-(4-Chloro-2-(methylsulfonyl)phenyl)(hydroxy)methyl)-1-methyl-1H-pyrazol-3-yl)-4-(2,6-dimethoxyphenyl)-4H-1,2,4-triazol-3-yl)ethanesulfonamide and N-(5-(5-((S)-(4-chloro-2-(methylsulfonyl)phenyl)(hydroxy)methyl)-1-methyl-H-pyrazol-3-yl)-4-(2,6-dimethoxyphenyl)-4H-1,2,4-triazol-3-yl)ethanesulfonamide], which EC50 is on record?
**A.** 260 nM

**Q.** COc1ccc(C(=O)O)cc1-n1c(NS(=O)(=O)Cc2ccc(Cl)cc2)nnc1-c1cccs1 [Example 384.0, 3-(3-((4-Chlorophenyl)methylsulfonamido)-5-(thiophen-2-yl)-4H-1,2,4-triazol-4-yl)-4-methoxybenzoic acid] was tested. Which EC50 did it give?
**A.** > 12500 nM

**Q.** COc1ccccc1-n1c(NS(=O)(=O)Cc2ccc(Cl)cc2)nnc1-c1cccs1 [Example 385.0, 1-(4-Chlorophenyl)-N-(4-(2-methoxyphenyl)-5-(thiophen-2-yl)-4H-1,2,4-triazol-3-yl)methanesulfonamide] was tested. Which EC50 did it give?
**A.** > 12500 nM

**Q.** Which EC50 does the source give for COc1ccccc1-n1c(NS(=O)(=O)CCC(F)(F)F)nnc1-c1cccs1 [Example 386.0, 3,3,3-Trifluoro-N-(4-(2-methoxyphenyl)-5-(2-thiophenyl)-4H-1,2,4-triazol-3-yl)-1-propanesulfonamide] here?
**A.** > 12500 nM

**Q.** For CCn1ccc(-c2nnc(NS(=O)(=O)[C@@H](C)[C@H](OC)c3ncc(C)cn3)n2-c2c(OC)cccc2OC)n1 [Example 387.0, (1R,2S)-N-(4-(2,6-Dimethoxyphenyl)-5-(1-ethyl-1H-pyrazol-3-yl)-4H-1,2,4-triazol-3-yl)-1-methoxy-1-(5-methylpyrimidin-2-yl)propane-2-sulfonamide], which EC50 is on record?
**A.** 0.55 nM

**Q.** For CCn1ccc(-c2nnc(NS(=O)(=O)[C@@H](C)[C@H](O)c3ncc(C)cn3)n2-c2c(OC)cccc2OC)n1 [Example 388.0, (1R,2S)-N-(4-(2,6-Dimethoxyphenyl)-5-(1-ethyl-1H-pyrazol-3-yl)-4H-1,2,4-triazol-3-yl)-1-hydroxy-1-(5-methylpyrimidin-2-yl)propane-2-sulfonamide], which EC50 is on record?
**A.** 0.37 nM

**Q.** CCn1ccc(-c2nnc(NS(=O)(=O)[C@@H](C)[C@H](C)c3ncc(C)cn3)n2-c2c(OC)cccc2OC)n1 [Example 389.0, (2S,3R)-N-(4-(2,6-Dimethoxyphenyl)-5-(1-ethyl-1H-pyrazol-3-yl)-4H-1,2,4-triazol-3-yl)-3-(5-methylpyrimidin-2-yl)butane-2-sulfonamide] was tested. Which EC50 did it give?
**A.** 0.34 nM

**Q.** CCn1ccc(-c2nnc(NS(=O)(=O)[C@@H](C)[C@@](O)(c3ncc(C)cn3)C(F)(F)F)n2-c2c(OC)cccc2OC)n1 [Example 390.0, (2S,3R)-N-(4-(2,6-Dimethoxyphenyl)-5-(1-ethyl-1H-pyrazol-3-yl)-4H-1,2,4-triazol-3-yl)-4,4,4-trifluoro-3-hydroxy-3-(5-methylpyrimidin-2-yl)butane-2-sulfonamide and (2S,3S)-N-(4-(2,6-dimethoxyphenyl)-5-(1-ethyl-H-pyrazol-3-yl)-4H-1,2,4-triazol-3-yl)-4,4,4-trifluoro-3-hydroxy-3-(5-methylpyrimidin-2-yl)butane-2-sulfonamide] was tested. Which EC50 did it give?
**A.** 73 nM

**Q.** CCO[C@H](c1ncc(Cl)cn1)[C@H](C)S(=O)(=O)Nc1nnc(-c2cc(C)n[nH]2)n1-c1c(OC)cccc1OC [Example 392.0, (1R,2S)-1-(5-Chloropyrimidin-2-yl)-N-(4-(2,6-dimethoxyphenyl)-5-(3-methyl-1H-pyrazol-5-yl)-4H-1,2,4-triazol-3-yl)-1-ethoxypropane-2-sulfonamide] was tested. Which EC50 did it give?
**A.** 1 nM

**Q.** How did the EC50 turn out when CCn1ccc(-c2nnc(NS(=O)(=O)[C@@H](C)[C@H](OC)c3ncc(Cl)cn3)n2-c2c(OC)cccc2OC)n1 [Example 393.0, (1R,2S)-1-(5-chloropyrimidin-2-yl)-N-(4-(2,6-dimethoxyphenyl)-5-(1-ethyl-1H-pyrazol-3-yl)-4H-1,2,4-triazol-3-yl)-1-methoxypropane-2-sulfonamide] was run?
**A.** 0.47 nM

**Q.** With CCO[C@H](c1ncc(Cl)cn1)[C@H](C)S(=O)(=O)Nc1nnc(-c2ccn(CC)n2)n1-c1c(OC)cccc1OC [Example 394.0, (1R,2S)-1-(5-chloropyrimidin-2-yl)-N-(4-(2,6-dimethoxyphenyl)-5-(1-ethyl-1H-pyrazol-3-yl)-4H-1,2,4-triazol-3-yl)-1-ethoxypropane-2-sulfonamide] as the compound, how does the EC50 read?
**A.** 0.54 nM

**Q.** With COc1cccc(OC)c1-n1c(NS(=O)(=O)[C@@H](C)[C@H](OC)c2ncc(C)cn2)nnc1-c1c(C)nc2ccccn12 [Example 410.0, (1R,25)-N-(4-(2,6-dimethoxyphenyl)-5-(2-methylimidazo[1,2-a]pyridin-3-yl)-4H-1,2,4-triazol-3-yl)-1-methoxy-1-(5-methylpyrimidin-2-yl)propane-2-sulfonamide] as the compound, how does the EC50 read?
**A.** 940 nM

**Q.** Which EC50 does the source give for COc1cccc(OC)c1-n1c(NS(=O)(=O)[C@@H](C)[C@H](OC)c2ncc(C)cn2)nnc1-c1n[nH]c2ccccc12 [Example 411.0] here?
**A.** 58 nM

**Q.** With COc1cccc(OC)c1-n1c(NS(=O)(=O)[C@@H](C)[C@H](OC)c2ncc(C)cn2)nnc1-c1n[nH]c2ccc(Cl)cc12 [Example 412.0, (1R,2S)-N-(5-(5-chloro-1H-indazol-3-yl)-4-(2,6-dimethoxyphenyl)-4H-1,2,4-triazol-3-yl)-1-methoxy-1-(5-methylpyrimidin-2-yl)propane-2-sulfonamide] as the compound, how does the EC50 read?
**A.** 140 nM

**Q.** For COc1cccc(OC)c1-n1c(NS(=O)(=O)[C@@H](C)[C@H](OC)c2ncc(C)cn2)nnc1-c1noc2ccc(Br)cc12 [Example 414.0], which EC50 is on record?
**A.** 210 nM
